{"source": "patent US20190212343A1", "about": "“METHODS FOR THE TREATMENT OF DISORDERS RELATED TO PHOSPHORYLATION OF HISTONES” (H. LEE MOFFITT CANCER CENTER AND RESEARCH INSTITUTE, INC., priority 2014, published 2019)", "key": {"ACK1": {"molecular_target": "T1, ACK1 (Homo sapiens, UniProt Q07912)", "T1 construct": "made in house; host or cells: insect cells", "T1 sequence (Q07912 whole entry)": "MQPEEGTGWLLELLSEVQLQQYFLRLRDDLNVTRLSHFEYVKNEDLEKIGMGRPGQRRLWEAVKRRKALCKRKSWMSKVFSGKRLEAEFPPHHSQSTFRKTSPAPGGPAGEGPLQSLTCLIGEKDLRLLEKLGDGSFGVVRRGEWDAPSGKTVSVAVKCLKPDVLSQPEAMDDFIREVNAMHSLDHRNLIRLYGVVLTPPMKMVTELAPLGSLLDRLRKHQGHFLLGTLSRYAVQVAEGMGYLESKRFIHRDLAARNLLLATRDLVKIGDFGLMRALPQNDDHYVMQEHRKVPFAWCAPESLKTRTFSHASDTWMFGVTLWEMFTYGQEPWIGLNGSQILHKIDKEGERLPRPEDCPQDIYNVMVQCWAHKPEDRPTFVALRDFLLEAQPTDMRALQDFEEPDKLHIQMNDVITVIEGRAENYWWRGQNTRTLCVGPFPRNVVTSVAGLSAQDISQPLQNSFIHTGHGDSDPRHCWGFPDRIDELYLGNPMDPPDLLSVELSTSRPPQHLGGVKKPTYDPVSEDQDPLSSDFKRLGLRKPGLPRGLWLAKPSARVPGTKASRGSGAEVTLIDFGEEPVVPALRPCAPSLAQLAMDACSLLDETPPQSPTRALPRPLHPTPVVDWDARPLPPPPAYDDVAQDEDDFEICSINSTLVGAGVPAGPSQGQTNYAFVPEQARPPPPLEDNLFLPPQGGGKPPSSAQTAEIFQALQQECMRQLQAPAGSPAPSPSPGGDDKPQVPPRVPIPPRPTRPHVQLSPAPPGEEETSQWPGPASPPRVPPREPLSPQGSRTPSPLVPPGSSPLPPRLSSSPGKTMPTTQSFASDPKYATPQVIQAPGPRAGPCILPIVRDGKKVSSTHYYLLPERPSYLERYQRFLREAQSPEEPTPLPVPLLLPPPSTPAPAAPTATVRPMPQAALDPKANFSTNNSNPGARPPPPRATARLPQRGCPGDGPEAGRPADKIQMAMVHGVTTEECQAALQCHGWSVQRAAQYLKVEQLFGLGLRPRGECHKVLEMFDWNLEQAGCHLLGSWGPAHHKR", "experiment": "In vitro kinase assay with purified ACK1 and H4, immunoblotting with pTyr antibodies", "assay_type": "biochemical", "details": "purified ACK1 and H4, AIM-100 100 nM", "experimental": "FIGS. 9A-9E show ACK1 phosphorylates histone H4 at Tyrosine 88. (FIG. 9A) peptide were spotted followed by immunoblotting with indicated antibodies. (FIG. 9B) Equimolar amounts of purified ACK1 and H4 proteins were incubated in the presence of AIM-100 (100 nM) and reaction subjected to immunoblotting with pTyr antibodies. (FIG. 9C) In vitro kinase assay performed using purified ACK1 and H4, followed by immunoblotting with pY88-H4 antibodies. (FIG. 9D) H4 Y88-phosphorylation in vivo. LNCaP cells were treated with DZI-067, AIM-100 or Enzalutamide (7 uM, 16 hrs). The nuclear lysates were immunoprecipitated with pY88-H4 antibodies followed by immunoblotting with H4. Lower panel is input lysate. (FIG. 9E) LNCaP cells were treated with Crizotinib (1 uM, 16 hrs). The cell lysates were immunoprecipitated with pY88-H4 antibodies followed by immunoblotting with H4 (upper panel). Lower panel is input lysate immunblotted with H4 antibodies.\nTo assess direct binding of Ack1 to H4, in vitro kinase assay was performed using purified Ack1 and H4 (New England Biolabs). Human Ack1 were expressed in insect cells and purified to homogeneity (unpublished data). Immunoblotting with pY88-H4 and pTyr antibodies confirmed that indeed H4 is directly Tyr-phosphorylated by Ack1 (FIG. 9B)."}, "AR protein levels": {"system": "AR protein levels", "experiment": "AR protein levels in androgen deprived prostate cancer cells (immunoblotting)", "assay_type": "cell-based, human", "details": "androgen deprived LNCaP and VCaP cells, 2.5, 5 and 10 uM", "experimental": "(FIG. 6A) Androgen starved LAPC4 cells were treated with DHT (10 nM, 16 Hrs), AIM-100, DZI-067, Enzalutamide or PLX4032 (7 uM, 36 Hr) and AR, pACK1 and Actin levels were determined by immunoblotting (IB). The relative level of AR is shown below. (FIG. 6B) Androgen deprived LNCaP and VCaP cell were untreated or treated with 2.5, 5 and 10 uM of AIM-100 and lysates were immunoblotted. The quantitation of AR expression is shown. (FIG. 6C) Androgen deprived LNCaP and VCaP cell were untreated or treated with 2.5, 5 and 10 uM of DZI-067 and lysates were immunoblotted. The quantitation of AR expression is shown. (FIG. 6D) LNCaP cells were transfected with control and Ack1 siRNAs followed by immunoblotting. (FIG. 6E) LNCaP cells treated with AIM-100 (7 uM, 16 hr) or MG 132 (10 uM, 6 hr) were immunoblotted with AR antibodies. […]\nAR has been known to interact with an ubiquitin E3 ligase, RNF6, causing AR ubiquitination, which in turn promoted AR transcriptional activity (Xu, K. et al. (2009) Cancer Cell 15(4):270-282). To determine whether post-translational modification has role to play in suppression of AR levels upon Ack1 kinase inhibition, LNCaP cells were treated with proteosomal inhibitor, MG-132 and AR levels were measured in presence or absence of AIM-100."}, "[1]": {"system": "pY88-H4 epigenetic marks in AR gene", "experiment": "ChIP with pY88-H4 antibodies and real time PCR at the AR gene", "assay_type": "cell-based, human", "details": "LNCaP and VCaP cells grown in the absence of androgen", "experimental": "FIGS. 10A-10C show H4 Y88-phosphorylation occurs within and downstream of AR gene. (FIG. 10A) The human AR gene and two pY88-H4 binding sites are shown. (FIG. 10B) VCaP and (FIG. 10C) LNCaP cells treated with ACK1 inhibitor; ChIP was performed followed by qPCR using primers corresponding to promoter, intron 2, 3′UTR or control region. VCaP: *p<0.05, **p<0.05; LNCaP: *p<0.05, **p<0.05\nTo determine whether ACK1 modifies chromatin at AR gene locus, LNCaP and VCaP cells grown in the absence of androgen and were treated with AIM-100. Chromatin immunoprecipitation (ChIP) was performed using pY88-H4 antibodies, followed by real time PCR with primers corresponding to the AR promoter, intron 2 and 3′UTR (FIG. 10A). […] These marks were also deposited at 3′UTR of the AR gene but not at the promoter region (FIGS. 10B and 10C)."}, "AR mRNA": {"system": "AR mRNA", "experiment": "AR mRNA levels in androgen-deprived prostate cancer cells (qPCR with AR primers)", "assay_type": "cell-based, human", "details": "androgen-deprived LAPC4 and LNCaP cells, overnight treatment"}, "VCaP cells": {"system": "VCaP cells", "experiment": "Cell proliferation assay, viable cells counted by trypan blue exclusion", "assay_type": "cell-based, human", "details": "androgen-independent VCaP cells, charcoal stripped media, 36 hrs; read-out: IC50, inhibition of cell growth", "experimental": "(§1) FIGS. 5A and 5B show cell proliferation assay. (FIG. 5A) LNCaP and (FIG. 5B) VCaP cells were grown in charcoal stripped media and treated with 1, 2.5, 5 and 10 uM of inhibitors (36 hrs) and number of viable cells were counted by trypan blue exclusion assay\n(§2) Applicant also assessed ability of the new Ack1 inhibitors to suppress proliferation of prostate cancer cell lines. […] Overall, it appears that ACK I is needed for androgen-independent growth of prostate cancer cells."}, "LNCaP cells": {"system": "LNCaP cells", "experiment": "Cell proliferation assay, viable cells counted by trypan blue exclusion", "assay_type": "cell-based, human", "details": "charcoal stripped media, 36 hrs, read-out: IC50, inhibition of cell growth", "experimental": "as §1, §2"}, "SLC6A4 mRNA": {"system": "SLC6A4 mRNA", "experiment": "SLC6A4 mRNA expression (real time RT-PCR)", "assay_type": "cell-based, human", "details": "inhibition of ACK1 by small molecule inhibitor", "experimental": "The ratio of SLC6A4 to actin is shown. (FIG. 5D) JAR cells were treated with EGF ligand and ChIP was performed using pY99-H3 antibodies followed by quantitative PCR using primers corresponding to intron 2 (VNTR). […]\nApplicant also identified for the first time that human and mouse serotonin transporter (SLC6A4 or SERT or 5-HTT) gene expression is regulated by ACK1. A novel mechanism was identified that is operational in SLC6A4 gene regulation. ACK1 deposits pY99-H3 epigenetic marks in promoter (5-HTTLPR) and intron 2 (VNTR) of SLC6A4 gene to regulate its transcription. […] Without being bound by theory, applicant believes that expression of Gabra6, Slc6a2, Slc6a4, Slc6a5 and Oxt genes as well as genes shown in Table 2 are also regulated by ACK1/pY99-H3 epigenetic activity/signaling."}}}
{"smiles": "c1ccc(-c2oc3ncnc(NC[C@@H]4CCCO4)c3c2-c2ccccc2)cc1", "note": "[AIM-100]", "values": [{"measurement": "H4 Tyr-phosphorylation by ACK1", "setting": "ACK1", "result": "H4 Tyr-phosphorylation is abrogated"}, {"measurement": "AR protein levels", "setting": "AR protein levels", "result": "concomitant decrease in AR protein levels"}, {"measurement": "pY88-H4 epigenetic marks at AR gene (intron 2, 3′UTR)", "setting": "[1]", "result": "erased"}, {"measurement": "AR mRNA levels", "setting": "AR mRNA", "result": "significantly suppressed"}, {"measurement": "IC50", "setting": "VCaP cells", "result": 4, "unit": "µM"}, {"measurement": "IC50", "setting": "LNCaP cells", "result": 7, "unit": "µM"}, {"measurement": "SLC6A4 mRNA expression", "setting": "SLC6A4 mRNA", "result": "significant loss of SLC6A4 mRNA expression"}]}
